These antisense oligonucleotides have a phosphorothioate backbone; sugars and methylation of C are not fully specified.
Note: test concentration or dose not given here.

The conditions of this series: ASO.
With AAAGAAGGGATAAGCACT, the remaining target (mRNA or protein) (fraction of control) amounted to 0.93. The result for AAAGCCATAGCCAGTTGC reads at least 1.

Take AAAGCCGTGGTGAACTGACT: the remaining target (mRNA or protein) (fraction of control) worked out at 0.84. AAATAGGTAGCCAGGTGG had a remaining target (mRNA or protein) (fraction of control) of 0.99. As to AAATGGCCGTTTTGCTCC, the remaining target (mRNA or protein) (fraction of control) was at least 1. On to AACGTGGTCACTTTATAG, for which the remaining target (mRNA or protein) (fraction of control) is 0.73.

The sequence AACTGAAATAACAACTTA showed a remaining target (mRNA or protein) (fraction of control) of 0.94. On to AAGACAATGTGGAATCGG, for which the remaining target (mRNA or protein) (fraction of control) is at least 1.

In turn, AAGGTGCTCTTCCCGCTC yielded a remaining target (mRNA or protein) (fraction of control) of 0.29. Turning to AAGGTTAAGATGCAGCAT, the remaining target (mRNA or protein) (fraction of control) turned out to be 0.55. In the case of AAGTCCAAGACAGAATCTGT, the remaining target (mRNA or protein) (fraction of control) was determined as 0.46.

AATCTTTAATTTCAGCCC returned a remaining target (mRNA or protein) (fraction of control) of at least 1. The sequence AATTCTGCCAGGTTGCTG registered a remaining target (mRNA or protein) (fraction of control) of at least 1. The sequence ACAGATCCAGTGGCTTGT gave a remaining target (mRNA or protein) (fraction of control) of at least 1.

The sequence ACAGTGTTTTCCGCGGT displayed a remaining target (mRNA or protein) (fraction of control) of 0.53. Regarding ACATTGAGGGAGTCGTTG, the remaining target (mRNA or protein) (fraction of control) is at least 1.

ACCACAGAACTGAAGGTT gave a remaining target (mRNA or protein) (fraction of control) of at least 1.

ACCAGCCCCGAGCGTTTG yielded a remaining target (mRNA or protein) (fraction of control) of 0.74. Regarding ACGTAGCCCTCCTCGGTG, the remaining target (mRNA or protein) (fraction of control) is at least 1.

As to ACTGCCTTCTCTGCCCACTT, the remaining target (mRNA or protein) (fraction of control) stood at 0.41. With AGAAAAGGAAATCCCAAA, the remaining target (mRNA or protein) (fraction of control) was at least 1. Turning to AGAGGCAGAGAAGAGAGC, the remaining target (mRNA or protein) (fraction of control) was found to be 0.93. AGCCAAATGGGAACTCACAG gave a remaining target (mRNA or protein) (fraction of control) of 0.74.

AGCGCCACACGCGACAGTAA returned a remaining target (mRNA or protein) (fraction of control) of 0.56. The result for AGCTCCCTTCTTACTCCC reads 0.69; that for AGCTCGCGCGAACCCCTA, at least 1. To AGGAGGCAGTACTGGAGTCT belongs 0.7.

Consider AGGCTGCTGGAAAGAGTCAG, for which the remaining target (mRNA or protein) (fraction of control) is 0.53. With AGGGAATAAATACAAAAG, the remaining target (mRNA or protein) (fraction of control) is at least 1. AGGGAGGCTGCCTTTTCC returned a remaining target (mRNA or protein) (fraction of control) of 0.63. In turn, AGGTAGTACACGGCTGAA came in with a remaining target (mRNA or protein) (fraction of control) of 0.28. Consider AGGTGACACGCCCGGAGA, for which the remaining target (mRNA or protein) (fraction of control) was at least 1. Turning to AGTAGGTTTTGGTGGTTT, the remaining target (mRNA or protein) (fraction of control) was at least 1. The sequence AGTGCATAAGAGGCCACAGC displayed a remaining target (mRNA or protein) (fraction of control) of 0.56. To ATCAGACTGGAGAGGAGC belongs 0.73; to ATCCCCTGATTTCTTCAC, 0.53.

In turn, ATCCGCAGGTTGGTTTTC showed a remaining target (mRNA or protein) (fraction of control) of at least 1.

Regarding ATCCTTTGTATTTCTTTC, the remaining target (mRNA or protein) (fraction of control) amounted to 0.85. Sequence ATCGTGCGCCCTTCTTGC had a remaining target (mRNA or protein) (fraction of control) of at least 1. The sequence ATCTTCTTCTCTTTCCTT came in with a remaining target (mRNA or protein) (fraction of control) of at least 1.

In the case of ATTCAGCATTTTGTAAGG, the remaining target (mRNA or protein) (fraction of control) turned out to be 0.99. Sequence ATTCTCCCAAAGCGTCCC had a remaining target (mRNA or protein) (fraction of control) of 0.81.

ATTGGTCTCTCGTCTTTC showed a remaining target (mRNA or protein) (fraction of control) of at least 1. As to ATTTCACTGTAAACGGCT, the remaining target (mRNA or protein) (fraction of control) stood at 0.81. ATTTCCTGGGATGTGCGG: the remaining target (mRNA or protein) (fraction of control) was found to be 0.48. As for ATTTCTCTCGTCCGCAAA, the remaining target (mRNA or protein) (fraction of control) came out at 0.34.

Regarding CAAAACCTAAATCCCTGG, the remaining target (mRNA or protein) (fraction of control) was at least 1. Regarding CAAAGCGCTTAACTACAT, the remaining target (mRNA or protein) (fraction of control) is at least 1. As for CACCCTGGCATCCCAAAT, the remaining target (mRNA or protein) (fraction of control) came to 0.13. For CACCGATGCAGAGGTCGC, the remaining target (mRNA or protein) (fraction of control) is 0.87. With CACCTGCAGCCGCCCGTCCA, the remaining target (mRNA or protein) (fraction of control) came out at 0.55. For CACTCTCGGGCAGCCAGC, the remaining target (mRNA or protein) (fraction of control) is 0.91. In the case of CAGCACCCCAACCCTTAACA, the remaining target (mRNA or protein) (fraction of control) is 0.47. In turn, CAGCGAGTACGTGACGGT showed a remaining target (mRNA or protein) (fraction of control) of 0.93. In turn, CAGGTAGATGAGGGCGAT displayed a remaining target (mRNA or protein) (fraction of control) of 0.74. CATAAGAGGCCACAGCAGGC came in with a remaining target (mRNA or protein) (fraction of control) of 0.41. On to CCAAAGAGCTGCTGGGAA, for which the remaining target (mRNA or protein) (fraction of control) is at least 1.

As to CCAACAAAACAGTCCAAA, the remaining target (mRNA or protein) (fraction of control) came to 0.94. Sequence CCACCACTACAGAGCAGG displayed a remaining target (mRNA or protein) (fraction of control) of at least 1. The sequence CCACCGCCGCCGCCGCTG showed a remaining target (mRNA or protein) (fraction of control) of 0.62. The sequence CCACTAGAGTGCGCCAGA had a remaining target (mRNA or protein) (fraction of control) of at least 1. Sequence CCACTCCCACCTCCCACC showed a remaining target (mRNA or protein) (fraction of control) of at least 1. Turning to CCAGGCTAAACCAGGCTG, the remaining target (mRNA or protein) (fraction of control) was found to be 0.43. On to CCATCTATGAGCACACTTCG, for which the remaining target (mRNA or protein) (fraction of control) was found to be 0.33. As for CCATGGTGCGGTGGCCTC, the remaining target (mRNA or protein) (fraction of control) came out at 0.94.

As to CCCAGGCGGAGGTCGGCG, the remaining target (mRNA or protein) (fraction of control) is at least 1. In turn, CCCCACGCTGCCCTCGGA yielded a remaining target (mRNA or protein) (fraction of control) of 0.8. The result for CCCCTCCACAAAAGTGCC reads 0.78; that for CCCGCACGTCCTTGAAGA, 0.27; that for CCCGGGCAGCTGAGAGCCCT, 0.72. As to CCCTAGTCCACAGGTTCC, the remaining target (mRNA or protein) (fraction of control) is at least 1.

As to CCGCCAGAAAGACCCCAC, the remaining target (mRNA or protein) (fraction of control) was at least 1. CCGCTCTTGGGTCTGGCA registered a remaining target (mRNA or protein) (fraction of control) of 0.29.

The sequence CCGTGGATGATCCGCATC had a remaining target (mRNA or protein) (fraction of control) of at least 1. CCTAGCAGTCTCTTCACTGC: the remaining target (mRNA or protein) (fraction of control) amounted to 0.74. As to CCTCCACAGCCACTGCAT, the remaining target (mRNA or protein) (fraction of control) worked out at 0.97. As to CCTCCGCCCTCTCTTGCC, the remaining target (mRNA or protein) (fraction of control) is 0.8. CCTGTTTACTGCTCTCCC came in with a remaining target (mRNA or protein) (fraction of control) of 0.8. The result for CCTTCAAAAGTTGTGCGG reads at least 1; that for CCTTCAGCAAAACAAAAC, 0.76. To CCTTGAAGACCTTGCGGA belongs 0.14; to CGCACAGCCCTTCACGGCAA, 0.32. To CGCATGGACACGAAGATG belongs at least 1. CGCCCGCCGGTGCCGCCT: the remaining target (mRNA or protein) (fraction of control) turned out to be 0.47.

Take CGCCCGGCGGCTCTTTCT: the remaining target (mRNA or protein) (fraction of control) is at least 1. Sequence CGCTCCGAAAAGAGACAG came in with a remaining target (mRNA or protein) (fraction of control) of 0.87. On to CGGCTGAATCGAGCAGGT, for which the remaining target (mRNA or protein) (fraction of control) was found to be 0.93. In turn, CGTCGGGCTCCTTGCTGA yielded a remaining target (mRNA or protein) (fraction of control) of at least 1.

CGTGTTGATAGTTGCAGTTC gave a remaining target (mRNA or protein) (fraction of control) of at least 1.

As for CTACAGGTTGGCCACTCTGG, the remaining target (mRNA or protein) (fraction of control) was found to be 0.33.

For CTATGGAAATGCAGCTTAAG, the remaining target (mRNA or protein) (fraction of control) is 0.87. In turn, CTCATAGCAGGCCCGGAT registered a remaining target (mRNA or protein) (fraction of control) of 0.44. Turning to CTCATCCGGATAGTACACAT, the remaining target (mRNA or protein) (fraction of control) came out at 0.64. For CTCCAGGATGTCGGTTTT, the remaining target (mRNA or protein) (fraction of control) is 0.77.

Take CTCCGGCGCGCACGGGAACC: the remaining target (mRNA or protein) (fraction of control) is 0.55. The result for CTCGATCGCTCCTCGTGC reads at least 1; that for CTCGTAACAAACTGGTCGAA, 0.83; that for CTGAAAGTGACAGTGTTT, 0.79.

As to CTGCCTCTCTCTCCTCCG, the remaining target (mRNA or protein) (fraction of control) was at least 1.

Sequence CTGCTGTATCATTTTCTT came in with a remaining target (mRNA or protein) (fraction of control) of at least 1. The result for CTGCTTCTTCTGCTCCAA reads 0.57; that for CTTAAGACATGACTGTTAAG, 0.89; that for CTTCTTGCTGCCCTCGGG, at least 1. With CTTTACTTCGCCGTCCAC, the remaining target (mRNA or protein) (fraction of control) was 0.59. The sequence CTTTCAAAGGAGGGAAAC gave a remaining target (mRNA or protein) (fraction of control) of at least 1. To CTTTGTTTCGGTTGCTGC belongs 0.64.

Sequence GACGTGCCTTTCTGCTAC came in with a remaining target (mRNA or protein) (fraction of control) of 0.72. To GACTTCCTTGCCTGAAAC belongs at least 1; to GAGAGATGCCCACCCACC, at least 1; to GAGGCGCTGCGGAACTTGGC, 0.5.

Turning to GAGTTGGTAGCCTCCGTT, the remaining target (mRNA or protein) (fraction of control) was at least 1. On to GATCTTGCAGACGGTAGCTG, for which the remaining target (mRNA or protein) (fraction of control) came out at 0.3.

Take GATGAACCTCTTGGCTGC: the remaining target (mRNA or protein) (fraction of control) is at least 1. For the sequence GATGACGGATGTGCTTTT, the remaining target (mRNA or protein) (fraction of control) was 0.74. Sequence GATGCGCTCCAGGTGGGA showed a remaining target (mRNA or protein) (fraction of control) of 0.58. Regarding GATGGGGGTGGTGGAGTGCA, the remaining target (mRNA or protein) (fraction of control) was 0.75. GCACAGCCTGTCTTCAAA had a remaining target (mRNA or protein) (fraction of control) of at least 1. GCAGAGCCGGCTGAAGTG returned a remaining target (mRNA or protein) (fraction of control) of 0.96.

With GCATCTGCTTGATGAAGG, the remaining target (mRNA or protein) (fraction of control) is at least 1.

Source of the values: the OligoGym collection.
